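Growth conditions: 96-well plates. Treatment: test compound, 48 hours, 5 concentrations. Analysis: linear interpolation between bracketing concentrations; unreached endpoints set to highest concentration. GI50: concentration for 50% inhibition of growth. TGI: total growth inhibition.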
How the values were obtained:
Assay in all cases: DTP human tumour cell line panel, 48 h
[1] = test system: 786-0 renal
[2] = test system: A498 renal
[3] = test system: A549 NSCLC
[4] = test system: ACHN renal
[5] = test system: BT-549 breast
[6] = test system: CAKI-1 renal
[7] = test system: CCRF-CEM leukemia
[8] = test system: COLO 205 colon
[9] = test system: DU-145 prostate
[10] = test system: EKVX NSCLC
[11] = test system: HCC-2998 colon
[12] = test system: HCT-116 colon
[13] = test system: HCT-15 colon
[14] = test system: HL-60(TB) leukemia
[15] = test system: HOP-62 NSCLC
[16] = test system: HOP-92 NSCLC
[17] = test system: HS 578T breast
[18] = test system: HT29 colon
[19] = test system: IGROV1 ovarian
[20] = test system: K-562 leukemia
[21] = test system: KM12 colon
[22] = test system: LOX IMVI melanoma
[23] = test system: MALME-3M melanoma
[24] = test system: MCF7 breast
[25] = test system: MDA-MB-231 breast
[26] = test system: MDA-MB-435
[27] = test system: MOLT-4 leukemia
[28] = test system: NCI-H226 lung
[29] = test system: NCI-H23 lung
[30] = test system: NCI-H460 lung
[31] = test system: NCI-H522 lung
[32] = test system: NCI/ADR-RES ovarian
[33] = test system: OVCAR-3 ovarian
[34] = test system: OVCAR-4 ovarian
[35] = test system: OVCAR-5 ovarian
[36] = test system: OVCAR-8 ovarian
[37] = test system: PC-3 prostate
[38] = test system: RPMI-8226 leukemia
[39] = test system: RXF 393 renal
[40] = test system: SF-268 CNS
[41] = test system: SF-295 CNS
[42] = test system: SF-539 CNS
[43] = test system: SK-MEL-28 melanoma
[44] = test system: SK-MEL-5 melanoma
[45] = test system: SN12C renal
[46] = test system: SNB-19 CNS
[47] = test system: SNB-75 CNS
[48] = test system: SR leukemia
[49] = test system: SW-620 colon
[50] = test system: TK-10 renal
[51] = test system: U251 CNS
[52] = test system: UACC-257 melanoma
[53] = test system: UO-31 renal
[54] = test system: M14 melanoma
[55] = test system: SK-OV-3 ovarian
[56] = test system: T-47D breast

COC1(OC)CC(CO)(CNc2nc(N)nc(Cl)c2C=O)C1
TGI [1]: > 100 µM | TGI [2]: > 100 µM | TGI [3]: > 100 µM | TGI [4]: 13 µM | TGI [5]: > 100 µM | TGI [6]: > 100 µM | TGI [7]: > 100 µM | TGI [8]: > 100 µM | TGI [9]: > 100 µM | TGI [10]: 52.2 µM | TGI [11]: 84.5 µM | TGI [12]: > 100 µM | TGI [13]: > 100 µM | TGI [14]: 35.8 µM | TGI [15]: > 100 µM | TGI [16]: 36.2 µM | TGI [17]: > 100 µM | TGI [18]: > 100 µM | TGI [19]: 48.3 µM | TGI [20]: 32.1 µM | TGI [21]: > 100 µM | TGI [22]: 35.2 µM | TGI [23]: > 100 µM | TGI [24]: > 100 µM | TGI [25]: 43.9 µM | TGI [26]: 85.9 µM | TGI [27]: 60.1 µM | TGI [28]: > 100 µM | TGI [29]: 48.5 µM | TGI [30]: > 100 µM | TGI [31]: 3.96 µM | TGI [32]: 88.1 µM | TGI [33]: > 100 µM | TGI [34]: 90.4 µM | TGI [35]: > 100 µM | TGI [36]: > 100 µM | TGI [37]: 77.4 µM | TGI [38]: > 100 µM | TGI [39]: > 100 µM | TGI [40]: > 100 µM | TGI [41]: > 100 µM | TGI [42]: > 100 µM | TGI [43]: > 100 µM | TGI [44]: > 100 µM | TGI [45]: > 100 µM | TGI [46]: > 100 µM | TGI [47]: > 100 µM | TGI [48]: 79.5 µM | TGI [49]: > 100 µM | TGI [50]: > 100 µM | TGI [51]: > 100 µM | TGI [52]: 71.6 µM | TGI [53]: > 100 µM

CC(O)CCc1ccc(Oc2c3ccccc3nc3occc23)cc1 (stereo unspecified)
GI50 [1]: 9.8 µM | TGI [1]: 21.9 µM | GI50 [3]: 4.22 µM | TGI [3]: 17.6 µM | GI50 [6]: 2.93 µM | TGI [6]: 13.5 µM | GI50 [7]: 9.41 µM | TGI [7]: 34.8 µM | GI50 [8]: 5.81 µM | TGI [8]: 24.1 µM | GI50 [9]: 16.6 µM | TGI [9]: 32.2 µM | GI50 [12]: 2.95 µM | TGI [12]: 15.6 µM | GI50 [14]: 1.78 µM | TGI [14]: 9.69 µM | GI50 [15]: 17.8 µM | TGI [15]: 31.9 µM | GI50 [17]: 20.4 µM | TGI [17]: 42.6 µM | GI50 [18]: 4.7 µM | TGI [18]: 18 µM | GI50 [19]: 17.7 µM | TGI [19]: 56.9 µM | GI50 [20]: 4.18 µM | TGI [20]: 31.6 µM | GI50 [21]: 3.68 µM | TGI [21]: 19 µM | GI50 [54]: 5.54 µM | TGI [54]: 17.9 µM | GI50 [24]: 3.14 µM | TGI [24]: 9.27 µM | GI50 [25]: 16.6 µM | TGI [25]: > 100 µM | GI50 [26]: 3.86 µM | TGI [26]: 15.6 µM | GI50 [28]: 3.84 µM | TGI [28]: 16.8 µM | GI50 [29]: 2.41 µM | TGI [29]: 12 µM | GI50 [30]: 4.02 µM | TGI [30]: 16.8 µM | GI50 [31]: 19.1 µM | TGI [31]: > 100 µM | GI50 [32]: 2.7 µM | TGI [32]: 14.6 µM | GI50 [33]: 4.4 µM | TGI [33]: 26.7 µM | GI50 [34]: 5.08 µM | TGI [34]: 74 µM | GI50 [35]: 11.9 µM | TGI [35]: 24.3 µM | GI50 [36]: 5.18 µM | TGI [36]: 19.6 µM | GI50 [37]: 5.39 µM | TGI [37]: 21.7 µM | GI50 [38]: 4.91 µM | TGI [38]: > 100 µM | GI50 [39]: 3.2 µM | TGI [39]: 8.89 µM | GI50 [40]: 11 µM | TGI [40]: 29.6 µM | GI50 [41]: 4.51 µM | TGI [41]: 17.1 µM | GI50 [42]: 13.9 µM | TGI [42]: 29.5 µM | GI50 [43]: 12.3 µM | TGI [43]: 25.1 µM | GI50 [55]: 15.3 µM | TGI [55]: 31.8 µM | GI50 [45]: 10.9 µM | TGI [45]: 24.2 µM | GI50 [46]: 13.5 µM | TGI [46]: 33 µM | GI50 [47]: 9.86 µM | TGI [47]: 28.5 µM | GI50 [48]: 2.89 µM | TGI [48]: 9.28 µM | GI50 [56]: 1.28 µM | TGI [56]: 10.9 µM | GI50 [50]: 1.22 µM | TGI [50]: 7.75 µM | GI50 [51]: 18.1 µM | TGI [51]: 33.8 µM | GI50 [52]: 3.7 µM | TGI [52]: 14.4 µM | GI50 [53]: 14.2 µM | TGI [53]: > 100 µM

Reference: PubChem BioAssay (NCI)
